Test results as given in US8273340B2, “Methods and compositions for attracting or repelling cockroaches” (The United States of America, as represented by the …, priority 2008, dated 2012).
Marks after values point to notes of the source that are not given here.

Legend:
[1] = tested on: Male cockroaches (Blattela germanica); assay: Y-tube olfactometer bioassay, test compound in mineral oil on filter paper; assay type: in vivo; settings: for Percent Response: 0.5% w/v solution in mineral oil, mean of 3 replicates, 65% or more = significantly attractive (*), 35% or less = significantly repellent (**)
Source text: The German cockroach (Blattela germanica) is one of the most difficult cockroach species to control in homes and was used to illustrate the invention. […] Since the cockroaches never contact the test sample, their response is strictly to the molecules in the air stream.
Olfactometer Bioassay: The Y-tube bioassay apparatus was similar to that described by Vander Meer et al. (J. Chem. Ecol., 14: 825-838 (1988)). Compressed air (breathing-air quality) was passed into the two choice arms at 0.2 l/min for a total flow of 0.4 l/min. Flow rates were adjusted and controlled by two flow meters (Omega Engineering, Inc.). All tubing carrying the air was either copper or Teflon. Prior to evaluating treatment samples, a positive standard was put through the bioassay procedure. […] Test samples (10.0 μl) and the solvent blank (mineral oil, 10.0 μl) were applied to filter paper strips (0.3×1.0 cm, Whatman No. 1) and then each was placed into one of the two choice arms. Male cockroaches (Blattela germanica) were prepared for their introduction into the olfactometer by placing them in a Teflon tube (3 cm×0.8 cm) that had one end blocked with a piece of copper mesh screen. The open end of tube was closed with a lightly attached piece of tape. The cockroaches were introduced individually by removing the tape and quickly inserting the Teflon tube into the entrance arm of the olfactometer. […] The initial choice of the cockroach was recorded. The cockroach was removed and the process was repeated 10 times with the same test and blank samples. The 10 choices usually required less than 5 minutes to complete. After each set of 10 cockroaches had made their choice, the olfactometer was rinsed with acetone, dried, and reassembled for the next test. Each sample was retested with the same cockroaches, but with the sample and control in reverse positions. The sum of the results from the two tests represented one replicate. This procedure minimized bias inherent in the apparatus. A null hypothesis of equal numbers of cockroaches in each arm was tested with chi-square analysis. […] Results in-between were neutral.
The diameter of the Y part of the olfactometer provided a close fit for the cockroach, thus keeping it in the center of the walkway.

[2] = tested on: German roaches (B. germanica); assay: Two-harborage arena bioassay of sustained release polymer formulations; assay type: in vivo; settings: counted after 24 hours
Source text: Evaluation of sustained release formulations: Three cockroach attractants (methyl tiglate, butyl heptanoate, and propyl proprionate) were formulated in one or more polymer formulations (Urethane, Pellethane, Santoprene, and/or Polyethylene) as indicated in Table 4.A sweater box (1.5×2.0×0.5 ft) provided the test arena. The sides of the arena were coated with a blend of mineral oil and Vaseline petroleum jelly. The tops of two 8 oz paper ice cream cups were tapped to the arena floor with masking tape and, prior to the addition of the test cockroaches, inverted cups without holes were fixed to the tapped lids. Twenty-five laboratory reared late stage nymphs or adult male German roaches (B. germanica), starved for 72 hrs, were added to the arena and allowed to calm down (ca. 1 hour). The starting inverted ice cream cups were carefully removed and each ice cream cup top was then supplied with a water tube (1.5 ml scintillation vial with water and stoppered with cotton), one lab chew food pellet, and either a test attractant polymer formulation or the corresponding polymer blank control. […] The cups were oriented so that the holes were facing each other. The number of roaches that sought harborage in the cups was counted after 24 hours by plugging the entrance holes with cotton, the roaches inside euthanized, and the numbers in each cup counted.

Q: With `CCCOC(=O)CC` [Propyl Propanoate] as the compound, how does the “Percent Response” value [1] read?
A: Its value is 70.0* %.

Q: What about the “attraction to treatment harborage versus polymer blank control (in words)” value ([2]; formulated in urethane) of the same compound?
A: Its value is “significant attraction and subsequent aggregation”.

Q: Which results are given for `C/C=C(\C)C(=O)OC` [methyl tiglate, methyl ester of tiglic acid (trans-2-methyl-2-butenoic acid (methyl tiglate))]?
A: Percent Response [1]: 80.0%; percent of responding cockroaches attracted ([1]; three concentrations (0.25 to 0.75) in mineral oil, N=1, FIG. 8): ≥ 65%; attraction to treatment harborage versus polymer blank control (in words) ([2]; formulated with Santoprene): significant attraction and aggregation
